≈ marks a conversion by molar mass, not a printed value. Like-named read-outs stand apart in the source and are kept apart here.
Key:
[1] = tested on: rat Wistar soumis à une surcharge saline; assay: Diuretic activity in selected Wistar rats given a saline overload (modified Wiebelhaus test); assay type: in vivo
Procedure: L'activité diurétique des produits selon l'invention a été également déterminée chez le rat Wistar soumis à une surcharge saline selon une modification du test décrit par Wiebelhaus et coll., Fed. Proc., 1960, 19, 364, en procédant à une sélection des animaux. A la dose de 20 mg/kg, les COR4003, COR4008, COR4009, COR4010, COR4011, COR4012, COR4014, COR4016, COR4021, COR4025 augmentent l'excrétion urinaire volumétrique mesurée au bout de 6 heures de respectivement 56, 54, 65, 95, 73, 54, 33, 40, 99 et 92 %. L'excrétion urinaire du sodium augmente de respectivement 56, 24, 42, 59, 43, 33, 29, 43, 31, 83, 26, 99, 40 % toujours à cette dose pour les COR4003, COR4008, COR4009, COR4010, COR4011, COR4012, COR4014, COR4016, COR4017, COR4021, COR4023, COR4025 et COR4026. Le rapport Na/K demeure la plupart du temps inchangé. Testé dans les mêmes conditions le furosémide, administré à la dose de 20 mg/kg entraine 63% d'augmentation de l'excrétion urinaire volumétrique et 53% d'augmentation de l'excrétion urinaire du sodium.

souris = assay: Acute toxicity (mortality, LD50) in mice; assay type: in vivo; details: mouse
[2] = tested on: oedème induit par l'injection intraplantaire de carragénine chez le rat; assay: Anti-inflammatory activity: carrageenan paw oedema in rats; assay type: in vivo; details: oral 1 h before carrageenan, measured 3 h after
Procedure: L'activité antiinflammatoire a été déterminée chez le rat par la mesure de l'inhibition de l'oedème induit par l'injection intraplantaire de 0,1 ml d'une suspension à 1% de carragénine chez le rat. Les produits à tester sont administrés par voie orale lh avant l'injection de carragénine et la mesure est réalisée 3h après cette injection. Les COR3789, COR3792, COR4003, COR4008 et COR4010 administrés à 10b mg/kg entrainent respectivement 43, 42, 41, 38 et 39% d'inhibition. Administré à 200 mg/kg, le COR3773 entraine 53% d'inhibition. L'aspirine administrée dans les mêmes conditions à 150 mg/kg entraine 40% d'inhibition de l'oedème.

[3] = tested on: rat soumis à une surcharge hydrique; assay: Diuretic activity in rats given a water overload, oral; assay type: in vivo; details: read-out: facteur multipliant l'excrétion urinaire du sodium
Procedure: L'activité diurétique a été déterminée sur plusieurs modèles expérimentaux. Chez le rat soumis à une surcharge hydrique, administrés par voie orale à la dose de 20 mg/kg, le COR3760, le COR3789, le COR3792, le COR4002, le COR4003, le COR4009, le COR4010, le COR4012 et le COR4014 multiplient l'excrétion urinaire du sodium par respectivement un facteur 2,9 - 3,1 - 5,9 - 2,6 - 7,2 - 3,5 - 3,8 - 2,9 - 2,4. Administrés à la dose de 10 mg/kg, dans les mêmes conditions, les COR3760, COR3789, COR3792, COR4003 et COR4010 multiplient l'excrétion sodique par respectivement 2,3 - 2,9 - 2,8 - 2,4 et 2,5. La spironolactone multiplie quant à elle l'excrétion sodique d'un facteur 3,6 à la dose de 20 mg/kg. Administré à la dose de 5 mg/kg dans les mêmes conditions, le COR3792 multiplie l'excrétion sodique par 3,3. Administré par voie orale chez le rat ou la souris soumis à une surcharge saline, le COR3760 augmente l'excrétion urinaire volumétrique mesurée à la sixième heure de respectivement 49, 119 et 134% chez la souris et 28, 84 et 116% chez le rat après administration de 10, 20, et 40 mg/kg. Le COR3760 a été administré par voie orale au rat soumis à une surcharge hydrique et l'excrétion urinaire volumétrique, le sodium et le potassium excrétés ont été mesurés sur une période de 6 heures; ces paramètres ont varié de respectivement +17%, +102%, +165% à 10 mg/kg, +19%, +147%, +180% à 20 mg/kg et +36%, +415% et +239% à 40 mg/kg; le rapport Na/K passe de 0,56 chez les animaux témoins à 0,4 à 10 mg/kg, 0,49 à 20 mg/kg et 0, 8 à 40 mg/ kg. Au cours d'une seconde expérimentation, le COR3760 a entrainé des variations de +19%, +157%, +70% à 40 mg/kg, +19%, +319%, +90% à 60 mg/kg et +29%, +472% et +77% à 80 mg/kg; le rapport Na/K passe de 0,59 chez les animaux témoins à 0,88 à 40, 1,15 à 60 et 1,88 à 80 mg/kg.

[4] = tested on: poumon de cobaye isolé perfusé; assay: Bronchodilator activity: isolated perfused guinea pig lung contracted by methacholine; details: flow of Tyrode solution, lung contracted by 0,05 microg/ml methacholine; read-out: concentration qui augmente ce débit de 50%
Text: L'activité bronchodilatatrice a été déterminée in vitro par la mesure du débit d'une solution de Tyrode à travers un poumon de cobaye isolé perfusé, contracté par l'addition au fluide de perfusion de 0,05 microg/ml de méthacholine. Les COR3760, COR3789, COR3792, COR4003, COR4008, COR4010 et COR4014 utilisés respectivement aux concentrations de 50, 50, 100, 10, 50, 50 et 10 microg/ml augmentent ce débit de 50%. L'aminophylline entraine cette même activité à la concentration de 100 microg/ml.

[5] = Acute toxicity (mortality, LD50) in mice; assay type: in vivo; details: in vivo, mouse, read-out: mortalité
[6] = tested on: segments d'iléon de cobaye isolés; assay: Anticholinergic activity: acetylcholine-induced contractions of isolated guinea pig ileum; details: Cavia porcellus; contractions induced by 0,1 microg/ml acetylcholine; read-out: concentration qui inhibe ces contractions de 80%
Text: L'activité anticholinergique a été appréciée par la mesure des contractions induites par 0,1 microg/ml d'acétylcholine sur des segments d'iléon de cobaye isolés. Les COR3760, COR3789, COR3792, COR4003, COR4008, COR4010, COR4014 utilisés respectivement aux concentrations de 50, 25, 25, 50, 25, 10, 25 microg/ml inhibent ces contractions de 80%.

[7] = 6 h, read-out: augmentation de l'excrétion urinaire volumétrique mesurée au bout de 6 heures
[8] = read-out: augmentation de l'excrétion urinaire du sodium
[9] = rat, water overload, oral, 20 mg/kg

`CCC(NC(C)C)=C1C(=O)c2ccccc2C1=O` [COR4025, (Isopropylamino-1 propylidényl)-2 indanedione-1,3] gave a change in vivo at 20 mg/kg [1, 7] of 92% and a change in vivo at 20 mg/kg [1, 8] of 99%.

In the case of `CC(NC1CCCCC1)=C1C(=O)c2ccccc2C1=O` [COR4013, (Cyclohexylamino-1 éthylidényl)-2 indanedione-1,3], the mortalité (souris; intraperitoneal, 200 mg/kg) is reported as “aucune mortalité” and the mortalité (souris; oral, 300 mg/kg) is reported as “aucune mortalité”.

For `CC(=O)Oc1ccccc1C(=O)O` [aspirine, reference compound], the “inhibition de l'oedème” value ([2]; 150 mg/kg) was 40%.

`CC(=O)S[C@@H]1CC2=CC(=O)CC[C@]2(C)[C@H]2CC[C@@]3(C)[C@@H](CC[C@@]34CCC(=O)O4)[C@H]12` [spironolactone, reference compound] showed a response vs control in vivo at 20 mg/kg ([3]; Rattus norvegicus, po) of 360%.

Work on `Cn1c(=O)c2[nH]cnc2n(C)c1=O` [aminophylline, reference compound] yielded an EC50 [4] of 100 µg/mL (≈ 555 µM).

For `CC(NC(C)(C)C)=C1C(=O)c2ccccc2C1=O` [COR4001, (Tertiobutylamino-1 éthylidényl)-2 indanedione-1,3], the mortality ([5]; ip, intraperitoneal, 200 mg/kg) was 100%, the mortality ([5]; oral, 300 mg/kg) was 100% and the mortalité (souris; intraperitoneal, 100 mg/kg) was “aucune mortalité”. For the same compound, the mortalité (souris; oral, 100 mg/kg) was “aucune mortalité”.

In the case of `CNC(=C1C(=O)c2ccccc2C1=O)c1ccccc1` [COR4004, (Alpha-méthylamino benzylidényl)-2 indanedione-1,3], the mortalité (souris; intraperitoneal, 200 mg/kg) is reported as “aucune mortalité” and the mortalité (souris; oral, 300 mg/kg) is reported as “aucune mortalité”.

For `CC(NC1CCCC1)=C1C(=O)c2ccccc2C1=O` [COR4012, (Cyclopentylamino-1 éthylidényl)-2 indanedione-1,3], the mortalité (souris; intraperitoneal, 200 mg/kg) was “aucune mortalité”, the mortalité (souris; oral, 300 mg/kg) was “aucune mortalité” and the response vs control in vivo at 20 mg/kg [3, 9] was 290%. The change in vivo at 20 mg/kg [1, 7] was 54% and the change in vivo at 20 mg/kg [1, 8] was 33%.

In the case of `CC(NC1CC1)=C1C(=O)c2ccccc2C1=O` [COR4014, (Cyclopropylamino-1 éthylidényl)-2 indanedione-1,3], the mortalité (souris; intraperitoneal, 200 mg/kg) is reported as “aucune mortalité”, the mortalité (souris; oral, 300 mg/kg) is reported as “aucune mortalité” and the response vs control in vivo at 20 mg/kg [3, 9] is reported as 240%. For the same compound, the change in vivo at 20 mg/kg [1, 7] was 33%, the change in vivo at 20 mg/kg [1, 8] was 29% and the EC50 [4] was 10 µg/mL (≈ 44 µM). The IC80 [6] was 25 µg/mL (≈ 110 µM).

In the case of `CC(NCC(C)C)=C1C(=O)c2ccccc2C1=O` [COR4008, (Isobutylamino-1 éthylidényl)-2 indanedione-1,3], the mortalité (souris; intraperitoneal, 200 mg/kg) is reported as “aucune mortalité”, the mortalité (souris; oral, 300 mg/kg) is reported as “aucune mortalité” and the change in vivo at 20 mg/kg [1, 7] is reported as 54%. For the same compound, the change in vivo at 20 mg/kg [1, 8] was 24%, the “inhibition de l'oedème” value ([2]; dose 10b mg/kg [sic]) was 38% and the EC50 [4] was 50 µg/mL (≈ 206 µM). For the same compound, the IC80 [6] was 25 µg/mL (≈ 103 µM).

For `CCNC(C)=C1C(=O)c2cc(Cl)c(Cl)cc2C1=O` [COR4007, Dichloro-5,6 (éthylamino-1 éthylidényl)-2 indanedione-1,3], the mortalité (souris; intraperitoneal, 200 mg/kg) was “aucune mortalité” and the mortalité (souris; oral, 300 mg/kg) was “aucune mortalité”.

Compound `CCNC(CC)=C1C(=O)c2ccccc2C1=O` [COR4021, (Ethylamino-1 propylidényl)-2 indanedione-1,3] has a change in vivo at 20 mg/kg [1, 7] of 99% and a change in vivo at 20 mg/kg [1, 8] of 83%.

In the case of `CC(NC(C)C)=C1C(=O)c2cc(Cl)c(Cl)cc2C1=O` [COR4016, Dichloro-5,6 (isopropylamino-1 éthylidényl)-2 indanedione-1,3], the mortalité (souris; intraperitoneal, 200 mg/kg) is reported as “aucune mortalité”, the mortalité (souris; oral, 300 mg/kg) is reported as “aucune mortalité” and the change in vivo at 20 mg/kg [1, 7] is reported as 40%. It also gave a change in vivo at 20 mg/kg [1, 8] of 43%.

In the case of `CCNC(C)=C1C(=O)c2ccc(Cl)cc2C1=O` [COR3774, Chloro-5 (éthylamino-1 éthylidène)-2 indanedione-1,3], the mortalité (souris; intraperitoneal, 200 mg/kg) is reported as “aucune mortalité” and the mortalité (souris; oral, 300 mg/kg) is reported as “aucune mortalité”.

`CCCC(NC)=C1C(=O)c2ccccc2C1=O` [COR4017, (Méthylamino-1 butylidényl)-2 indanedione-1,3] gave a change in vivo at 20 mg/kg [1, 8] of 31%.

For `CNC(C)=C1C(=O)c2cc(Cl)c(Cl)cc2C1=O` [COR4006, Dichloro-5,6 (méthylamino-1 éthylidényl)-2 indanedione-1,3], the mortalité (souris; intraperitoneal, 200 mg/kg) was “aucune mortalité” and the mortalité (souris; oral, 300 mg/kg) was “aucune mortalité”.

Compound `NS(=O)(=O)c1cc(C(=O)O)c(NCc2ccco2)cc1Cl` [furosémide, reference compound] has a change in vivo at 20 mg/kg [1, 7] of 63% and a change in vivo at 20 mg/kg [1, 8] of 53%.

In the case of `CNC(C)=C1C(=O)c2ccc([N+](=O)[O-])cc2C1=O` [COR4002, Nitro-5 (méthylamino-1 éthylidényl)-2 indanedione-1,3], the mortality ([5]; ip, intraperitoneal, 200 mg/kg) is reported as 100%, the mortality ([5]; oral, 300 mg/kg) is reported as 100% and the mortalité (souris; intraperitoneal, 100 mg/kg) is reported as “aucune mortalité”. The mortalité (souris; oral, 100 mg/kg) was “aucune mortalité” and the response vs control in vivo at 20 mg/kg [3, 9] was 260%.

With `CC(N)=C1C(=O)c2ccccc2C1=O` [COR4026, (Amino-1 éthylidényl)-2 indanedione-1,3] the change in vivo at 20 mg/kg [1, 8] was 40%.

Work on `CC(C)NC(=C1C(=O)c2ccccc2C1=O)C(C)C` [COR4023, (Isopropylamino-1 isobutylidényl)-2 indanedione-1,3] yielded a change in vivo at 20 mg/kg [1, 8] of 26%.

For `CC(=C1C(=O)c2ccccc2C1=O)N(C)C` [COR3788, (Diméthylamino-1 éthylidène)-2 indanedione-1,3], the mortality ([5]; ip, intraperitoneal, 200 mg/kg) was 100%, the mortality ([5]; oral, 300 mg/kg) was 100% and the mortalité (souris; intraperitoneal, 100 mg/kg) was “aucune mortalité”.

With `CC(=O)NS(=O)(=O)c1cc2c(cc1Cl)C(=O)C(=C(C)NC(C)C)C2=O` [COR4015, N-acétylsulfonamido-6 chloro-5 (isopropylamino-1 éthylidényl)-2 indanedione-1,3] the mortalité (souris; intraperitoneal, 200 mg/kg) was “aucune mortalité” and the mortalité (souris; oral, 300 mg/kg) was “aucune mortalité”.
